This is an account of results in US12485179B2, “Cholecystokinin B receptor targeting for imaging and therapy” (Purdue Research Foundation, priority 2012, dated 2025).

Structures are written as SMILES.

The assay has as its target T1, CCK2i4svR (Homo sapiens, UniProt P32239).
T1 construct: expressed in transfected cells; host or cells: HEK-293, G418-selected, from Dr. Mark Hellmich (University of Texas at Galveston)
T1 sequence (P32239 1-516 isoform P32239-2): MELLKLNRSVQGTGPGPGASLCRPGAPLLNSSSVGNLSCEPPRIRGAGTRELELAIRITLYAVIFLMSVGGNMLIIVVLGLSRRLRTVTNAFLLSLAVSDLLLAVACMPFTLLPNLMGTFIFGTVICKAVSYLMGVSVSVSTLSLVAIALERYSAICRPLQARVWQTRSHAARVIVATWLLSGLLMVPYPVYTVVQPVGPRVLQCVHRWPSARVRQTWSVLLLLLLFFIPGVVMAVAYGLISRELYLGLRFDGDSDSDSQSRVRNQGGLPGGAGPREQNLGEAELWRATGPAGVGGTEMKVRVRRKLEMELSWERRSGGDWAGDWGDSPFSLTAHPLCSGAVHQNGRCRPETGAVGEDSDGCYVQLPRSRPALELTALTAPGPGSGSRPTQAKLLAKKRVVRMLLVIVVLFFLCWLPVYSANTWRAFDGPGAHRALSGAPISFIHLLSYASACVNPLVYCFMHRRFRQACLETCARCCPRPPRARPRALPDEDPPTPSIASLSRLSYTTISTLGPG
Put plainly: Binding of 99mTc conjugates to HEK CCK2i4svR cells (cell bound radioactivity). The procedure:
CRL-1, CRL-2, CRL-3 and CRL-4 were chelated to ^99mTc and tested for binding using two transfected cell lines of HEK-CCK2R (HEK-293 CCK2R) and HEK-CCK2R splice cell line (HEK CCK2i4svR), obtained from Dr. Mark Hellmich (University of Texas at Galveston). Cells were cultured in Dulbecco's modified Eagles (Gibco) supplemented with 10% Fetal Bovine Serum and G418 disulfate (SIGMA; 400 μg/ml), 1% penicillin/streptomycin at 37° C. in a humidified 95% air, 5% CO2 atmosphere.
Competition studies were performed using 100 fold excess of free Z-360 containing corresponding peptide linker and no chelating moiety. HEK 293 CCK2R and HEK CCK2i4svR were seeded onto 24 well plates and allowed to become confluent over 48-72 hours. Spent medium in each well was replaced with 0.5 ml fresh media containing 0.5% BSA and increasing concentrations of the test article. After incubating for 1 h at 37° C. cells were rinsed with incubation solution (2×1.0 ml) to remove any unbound radioactivity. Cells were then resuspended on 0.5 ml 0.25N NaOH and cell radioactivity was counted using a γ-counter. The dissociation constant (KD) was calculated using a plot of cell bound radioactivity versus the concentration of the radiotracer using Graphpad Prism 4 and assuming a non-cooperative single site binding equilibrium.

Regarding `CC(C)(C)C(=O)CN1C(=O)[C@H](NC(=O)Nc2cccc(C(=O)NCCCCCCCC(=O)N[C@H](CCC(=O)O)C(=O)N[C@H](CCC(=O)NC[C@H](O)[C@@H](O)[C@H](O)[C@H](O)CO)C(=O)N[C@H](CCC(=O)O)C(=O)N[C@H](CCC(=O)NC[C@H](O)[C@@H](O)[C@H](O)[C@H](O)CO)C(=O)NC[C@@H]3[NH][99Tc]45[S]C[C@@H](C(=O)O)[N]4C(=O)[C@H](CC(=O)O)[N]5C3=O)c2)CN(C2CCCCC2)c2ccccc21` (stereo partly shown) [CRL-3 ^99mTc], the Kd turned out to be 4 nM.
